Data from ChEMBL document CHEMBL1135480, “Design and quantitative structure-activity relationship of 3-amidinobenzyl-1H-indole-2-carboxamides as potent, nonchiral, and selective inhibitors of blood coagulation factor Xa” (J Med Chem, 2002).
pKi: −log10 of the molar value.

Assays:
[1] = target: Prothrombin (Homo sapiens, UniProt P00734); assay: Inhibitory activity against human thrombin
[2] = target: Coagulation factor X (Homo sapiens, UniProt P00742); assay: Inhibition of Coagulation factor Xa
Coagulation factor X, sequence (P00742 41-179 limits assumed): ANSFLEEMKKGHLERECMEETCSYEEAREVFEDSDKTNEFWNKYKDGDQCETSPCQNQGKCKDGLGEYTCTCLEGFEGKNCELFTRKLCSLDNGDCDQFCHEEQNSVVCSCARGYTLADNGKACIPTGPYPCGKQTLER
Coagulation factor X, sequence (P00742 235-488 limits assumed): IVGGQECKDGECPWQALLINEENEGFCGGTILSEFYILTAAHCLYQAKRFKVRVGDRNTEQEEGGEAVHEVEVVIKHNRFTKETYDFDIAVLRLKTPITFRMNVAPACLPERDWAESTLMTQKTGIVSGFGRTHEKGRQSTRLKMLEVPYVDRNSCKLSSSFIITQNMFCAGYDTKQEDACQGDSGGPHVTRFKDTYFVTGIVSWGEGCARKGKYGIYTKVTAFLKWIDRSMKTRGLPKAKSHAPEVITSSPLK

SMILES	pKi [1]	pKi [2]
N=C(N)c1ccc(CNC(=O)c2cc3c(O)cccc3n2Cc2cccc(C(=N)N)c2)cc1	5.38	–
Cc1cccc2c1cc(C(=O)NCc1nccc3ccccc13)n2Cc1cccc(C(=N)N)c1	6.70	7.82
Cc1cc(CNC(=O)c2cc3c(O)cccc3n2Cc2cccc(C(=N)N)c2)cc(C(F)(F)F)c1	6.32	–
N=C(N)c1cccc(Cn2c(C(=O)NCC34C[C@H]5C[C@@H](C3)C[C@@H](C4)C5)cc3c(O)cccc32)c1	–	6.56
N=C(N)c1cccc(Cn2c(C(=O)NCc3cc(F)cc(C(F)(F)F)c3)cc3c(O)cccc32)c1	5.77	7.41
N=C(N)c1cccc(Cn2c(C(=O)NCc3nccc4ccccc34)cc3c(O)cccc32)c1	6.54	7.70
Cc1cccc2c1cc(C(=O)NCc1cccc(C(=N)N)c1)n2Cc1cccc(C(=N)N)c1	5.62	–
N=C(N)c1cccc(CNC(=O)c2c(Cl)c3ccccc3n2Cc2cccc(C(=N)N)c2)c1	5.37	–
C[n+]1ccc(CNC(=O)c2cc3cc(N)ccc3n2Cc2cccc(C(=N)N)c2)cc1	4.24	7.00
C[N+](C)(C)c1ccc(CNC(=O)c2cc3cc(Cl)ccc3n2Cc2cccc(C(=N)N)c2)cc1	4.80	6.85
Cc1cccc2c1cc(C(=O)NCc1ccc([N+](C)(C)Cc3ccccc3)cc1)n2Cc1cccc(C(=N)N)c1	5.41	7.64
C[N+](C)(C)c1ccc(CNC(=O)c2cc3c(O)cccc3n2Cc2cccc(C(=N)N)c2)cc1	5.04	–
CC(C)(C)OC(=O)Nc1ccc2c(c1)cc(C(=O)NCc1ccc([N+](C)(C)C)cc1)n2Cc1cccc(C(=N)N)c1	4.55	–
C[N+](C)(C)c1ccc(CNC(=O)c2cc3ccccc3n2Cc2cccc(C(=N)N)c2)cc1	–	6.40
Cc1cccc2c1c(Br)c(C(=O)NCc1cccc(C(=N)N)c1)n2Cc1cccc(C(=N)N)c1	5.68	7.30
N=C(N)c1cccc(Cn2c(C(=O)NCc3cc(C(F)(F)F)cc(C(F)(F)F)c3)cc3c(O)cccc32)c1	5.93	7.00
N=C(N)c1ccc(CNC(=O)c2cc3cc(N)ccc3n2Cc2cccc(C(=N)N)c2)cc1	5.25	7.05
Cc1cccc2c1cc(C(=O)NCc1cc(Cl)cc(Cl)c1)n2Cc1cccc(C(=N)N)c1	5.79	–
N=C(N)c1cccc(COC(=O)c2cc3ccccc3n2Cc2cccc(C(=N)N)c2)c1	5.61	–
Cc1cc(C)cc(CNC(=O)c2cc3c(C)cccc3n2Cc2cccc(C(=N)N)c2)c1	5.85	–
Cc1cccc2c1cc(C(=O)NCC1CCC(C(=N)N)CC1)n2Cc1cccc(C(=N)N)c1 (stereo not given)	–	7.35
N=C(N)c1cccc(Cn2c(C(=O)NCc3cc(Cl)cc(Cl)c3Cl)cc3c(O)cccc32)c1	6.57	7.00
COc1cccc2c1cc(C(=O)NCc1ccc(O)cc1)n2Cc1cccc(C(=N)N)c1	–	6.74
N=C(N)c1cccc(CNC(=O)c2c(Br)c3ccccc3n2Cc2cccc(C(=N)N)c2)c1	5.48	7.59
